Publication PMC8624485, “Modeling, Synthesis, and Biological Evaluation of Potential Retinoid-X-Receptor (RXR) Selective Agonists: Analogs of 4-[1-(3,5,5,8,8-Pentamethyl-5,6,7,8-tetrahyro-2-naphthyl)ethynyl]benzoic Acid (Bexarotene) and 6-(Ethyl(4-isobutoxy-3-isopropylphenyl)amino)nicotinic Acid (NEt-4IB)” (International Journal of Molecular Sciences, 2021)
Where two headings read alike, the source gives them in different places.

Key:
Assay type in all cases: cell-based
[1] = molecular target: T1, human RARα (Homo sapiens, UniProt P10276); assay: RARE-luciferase reporter assay in HEK293 cells; settings: HEK293, all-trans-RA set to 100%
T1 construct: expressed in transfected cells; host or cells: HEK293 cells
T1 sequence (P10276 1-462): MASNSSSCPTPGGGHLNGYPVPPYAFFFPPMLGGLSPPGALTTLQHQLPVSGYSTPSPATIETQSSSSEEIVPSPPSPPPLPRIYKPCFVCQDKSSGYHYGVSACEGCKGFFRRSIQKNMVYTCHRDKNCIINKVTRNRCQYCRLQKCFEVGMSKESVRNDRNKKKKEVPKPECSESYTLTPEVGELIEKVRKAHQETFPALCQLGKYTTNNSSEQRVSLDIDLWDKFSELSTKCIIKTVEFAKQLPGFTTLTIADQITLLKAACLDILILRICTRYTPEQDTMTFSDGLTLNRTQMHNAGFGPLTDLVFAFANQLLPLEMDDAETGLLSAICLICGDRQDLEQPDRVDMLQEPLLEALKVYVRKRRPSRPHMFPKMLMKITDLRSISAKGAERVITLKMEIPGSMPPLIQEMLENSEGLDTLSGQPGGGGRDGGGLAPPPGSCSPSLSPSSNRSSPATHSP
Protocol: Human embryonic kidney cells (HEK293) were plated at 60,000 cells per well in a 24-well plate and maintained as described above. After 24 h, the cells were transfected with 250 ng pTK-DR5(X2)-Luc, 25 ng pCMX-human RARα, and 20 ng renilla utilizing 1.25 µL polyethylenimine (PEI) per well for 24 h. The sequence of the double DR5 RARE is: 5′-[…]-3′ (DR5 responsive elements underlined). The cells were treated with ethanol vehicle (0.1%), all-trans-retinoic acid (RA, the ligand for RAR), or the indicated rexinoid at a final concentration of 10 nM. After 24 h of treatment, the retinoid activity was measured as described above (dual luciferase assay). […] Three independent assays were conducted with triplicate samples for each treatment group. The value for RA was set to 100%. […]

[2] = molecular target: T2, RXRα (Homo sapiens, UniProt P19793); assay: UAS/Gal4 GFP reporter assay of RXRα activation in UAS-GFP x KMT2A-MLLT3 cells
T2 construct: expressed in transfected cells; host or cells: UAS-GFP x KMT2A-MLLT3 cells (retroviral transduction)
T2 sequence (P19793 227-458 limits assumed): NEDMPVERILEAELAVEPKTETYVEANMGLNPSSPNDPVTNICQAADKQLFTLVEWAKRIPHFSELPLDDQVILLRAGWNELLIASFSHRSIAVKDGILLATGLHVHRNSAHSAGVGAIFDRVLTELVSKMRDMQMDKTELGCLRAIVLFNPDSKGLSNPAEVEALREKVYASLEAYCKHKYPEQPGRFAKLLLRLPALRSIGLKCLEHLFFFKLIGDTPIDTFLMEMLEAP
Protocol: Cells were treated, and after 48 h, GFP measured by a ZE5 Flow Cytometer (Biorad).

[3] = molecular target: T3, RXR-LXR heterodimer (LXR/LXRE) (Homo sapiens, UniProt P19793); assay: LXRE-luciferase transactivation assay in HEK293 cells; settings: for LXRE Activity (% of Bex): 100 nM compound alone, HEK293, bexarotene (1) set to 100%; for LHS Score (vs. Bex): LXRE Heterodimer Specificity: LXRE:RXRE activity ratio, compound 1 set to 1.0
T3 construct: expressed in transfected cells; host or cells: HEK293 cells
T3 sequence (P19793 1-462): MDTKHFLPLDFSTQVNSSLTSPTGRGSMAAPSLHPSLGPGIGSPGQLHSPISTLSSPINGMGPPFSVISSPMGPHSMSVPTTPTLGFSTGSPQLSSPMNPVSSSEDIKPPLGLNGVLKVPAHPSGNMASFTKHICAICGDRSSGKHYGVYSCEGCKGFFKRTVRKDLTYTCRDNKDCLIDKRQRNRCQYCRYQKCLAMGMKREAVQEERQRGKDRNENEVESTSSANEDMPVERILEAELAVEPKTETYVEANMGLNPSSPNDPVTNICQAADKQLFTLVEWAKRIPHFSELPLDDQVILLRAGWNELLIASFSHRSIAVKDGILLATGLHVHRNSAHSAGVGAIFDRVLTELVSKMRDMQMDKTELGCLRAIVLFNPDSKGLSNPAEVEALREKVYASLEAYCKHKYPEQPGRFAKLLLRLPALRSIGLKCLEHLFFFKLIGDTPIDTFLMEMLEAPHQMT
T3 sequence (Q13133 1-447 partner): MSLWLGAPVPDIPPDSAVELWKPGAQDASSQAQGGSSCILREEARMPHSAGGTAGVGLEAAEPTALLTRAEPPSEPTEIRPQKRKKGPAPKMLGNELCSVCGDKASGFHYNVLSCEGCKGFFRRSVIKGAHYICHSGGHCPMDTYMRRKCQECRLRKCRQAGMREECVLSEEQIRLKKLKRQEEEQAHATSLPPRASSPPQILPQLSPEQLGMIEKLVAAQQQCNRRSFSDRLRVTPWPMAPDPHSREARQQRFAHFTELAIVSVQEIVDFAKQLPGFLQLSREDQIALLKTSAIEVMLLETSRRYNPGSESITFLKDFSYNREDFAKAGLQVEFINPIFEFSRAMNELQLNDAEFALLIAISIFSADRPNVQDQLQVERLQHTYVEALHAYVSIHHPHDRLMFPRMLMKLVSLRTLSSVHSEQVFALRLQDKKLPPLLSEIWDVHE
Protocol: The activation from this natural LXRE in our system was tested in the presence of either 100 nM RXR agonists alone or in combination with 100 nM of both the RXR agonist and LXR agonist T0901317 (TO). […] The LXRE-mediated assays were performed using human embryonic cells (HEK293) seeded at a density of 60,000 cells/well in a 24-well plate and maintained in DMEM (Hyclone) supplemented with 10% fetal bovine serum, 100 µg/mL streptomycin, 100 U/mL penicillin (Invitrogen, Carlsbad, CA, USA) at 37 degrees Celsius, 5% CO2 for 24 h. The cells were co-transfected with 250 ng of an LXRE-luciferase reporter gene, 50 ng of pSG5-human RXRα, and 20 ng of renilla control plasmid. […] After 24 h post treatment, the cells were lysed and the transcriptional activity mediated by the LXRE was measured using the Dual Luciferase Assay System (Promega, Madison, WI) in a Sirius FB12 luminometer (Berthold Detection Systems, Pforzheim, Germany) according to the manufacturer’s protocol. The data are a compilation of between three and six independent assays with each treatment group dosed in triplicate for each independent assay. […] Bars on all graphs indicate standard deviation of the replicate experiments.
Cells were transfected for 24 h utilizing a liposome-mediated transfection protocol and then treated with the ethanol vehicle, or 100 nM of the indicated compound alone or in combination with 100 nM TO901317 (TO). […] (A) Human HEK-293 cells were transfected and treated as described in Figure 8.

[4] = system: Saccharomyces cerevisiae; assay: Saccharomyces cerevisiae toxicity assay; settings: 3 h incubation, colony count vs DMSO only control; highest concentration tested 11 µg/µL
Protocol: These compounds were also assessed for mutagenicity and toxicity in Saccharomyces cerevisiae and the toxicity results are summarized in Table 1. No compound was mutagenic in this assay.
All compounds were tested for toxicity and mutagenicity using a Saccharomyces cerevisiae based assay as described previously. Toxicity was assessed in this assay (Table 1), comparing growth on plates to control treatments. Compounds were solubilized in DMSO at increasing concentrations and cells were incubated with the compounds for 3 h before plating on selective media or YPD to assess toxicity and mutagenicity. Cytotoxicity was assessed as described. Growth of colonies on the full nutrient YPD plate for each treatment was compared to the DMSO only control. The concentration at which 50% cell death (as indicated by colony count compared to DMSO only control) +/−10% cell death is reported as the 50% killing rate. The highest concentration tested was 11 µg/µL.

[5] = RXRα activation, value (SD), Table 1 does not say whether GFP or Luc assay, read-out: EC50 (nM) +/−(SD)

Row | Compound | RARE Activity (%RA at 10 nM) [1] [%RA] | EC50 [2, 5] [nM] | LXRE Activity (% of Bex) [3] | Cyto-Toxicity (50% Cell Death) [4] | LHS Score (vs. Bex) [3] | EC50 [2] [nM] | LXRE activity in combination with LXR ligand T0901317 (TO) ([3]; 100 nM compound + 100 nM T0901317, HEK293, compared with TO+1)
1 | CCN(c1ccc(C(=O)O)cc1)c1ccc(OCC(C)C)c(C(C)C)c1 [Compound 30, 4-(ethyl(4-isobutoxy-3-isopropylphenyl)amino)benzoic acid] | 1.1 | 397 | 60.2 % of Bex | 0.08 µg/µL |  |  | 
2 | C=C(c1ccc(C(=O)O)c(O)c1)c1ccc2c(c1)C(C)(C)CCC2(C)C [Compound 37b, 2-Hydroxy-4-(1-(5,5,8,8-tetramethyl-5,6,7,8-tetrahydronaphthalen-2-yl)vinyl)benzoic Acid] | 5.2 | 413 | 69.1 % of Bex | 0.5 µg/µL | 0.91 |  | 
3 | CCN(c1ccc(OCC(C)C)c(C(C)C)c1)c1ncc(C(=O)O)cn1 [Compound 28, 2-(ethyl(4-isobutoxy-3-isopropylphenyl)amino)pyrimidine-5-carboxylic acid] | 1.6 | 297 | 77.7 % of Bex | 1 µg/µL |  |  | 
4 | C=C(c1ccc(C(=O)O)c(F)c1)c1ccc2c(c1)C(C)(C)CCC2(C)C [Compound 36, 2-fluoro-4-(1-(5,5,8,8-tetramethyl-5,6,7,8-tetrahydronaphthalen-2-yl)vinyl)benzoic Acid] | 1.4 | 375 | 85.2 % of Bex | 0.08 µg/µL |  |  | 
5 | Cc1cc2c(cc1C1(c3ncc(C(=O)O)cn3)CC1)C(C)(C)CC2(C)C [Compound 33, 2-(1-(1,1,3,3,6-pentamethyl-2,3-dihydro-1H-inden-5-yl)cyclopropyl)pyrimidine-5-carboxylic Acid] | 5.9 | 17 | 50.9 % of Bex | none | 0.38 |  | 
6 | C=C(c1ccc(C(=O)O)cc1)c1ccc2c(c1)C(C)(C)CCC2(C)C [Compound 27, 4-(1-(5,5,8,8-tetramethyl-5,6,7,8-tetrahydronaphthalen-2-yl)vinyl)benzoic acid, reference compound] | 1.5 |  | 82.4 % of Bex | 0.5 µg/µL | 1.0 | 171 | 
7 | C=C(c1ccc(C(=O)O)c(O)c1)c1cc2c(cc1C)C(C)(C)CCC2(C)C [Compound 37a, 2-Hydroxy-4-(1-(3,5,5,8,8-pentamethyl-5,6,7,8-tetrahydronaphthalen-2-yl)vinyl)benzoic acid] | 2.9 | 24.2 | 91.1 % of Bex | 1 µg/µL | 0.45 |  | 
8 | C=C(c1ccc(C(=O)O)cc1)c1cc2c(cc1C)C(C)(C)CC2(C)C [Compound 26, reference compound] | 3.0 | 70.1 | 94.5 % of Bex | none | 0.66 |  | higher activity than TO+1
9 | C=C(c1ncc(C(=O)O)cn1)c1cc2c(cc1C)C(C)(C)CC2(C)C [Compound 32, 2-(1-(1,1,3,3,6-pentamethyl-2,3-dihydro-1H-inden-5-yl)vinyl)pyrimidine-5-carboxylic Acid] | 12.9 | 34.4 | 46.0 % of Bex | none | 0.38 |  | 
10 | C=C(c1ccc(C(=O)O)cc1)c1cc2c(cc1C)C(C)(C)CCC2(C)C [Compound 1, reference compound] |  |  |  | 0.5 µg/µL |  |  | 
11 | CC1(C)CCC(C)(C)c2cc(C3(c4ncc(C(=O)O)cn4)CC3)ccc21 [Compound 35, 2-(1-(5,5,8,8-tetramethyl-5,6,7,8-tetrahydronaphthalen-2-yl)cyclopropyl)pyrimidine-5-carboxylic acid] | 5.1 | 1.3 | 60.6 % of Bex | none |  |  | 
